The subject of this experiment is Influenza A virus. Put plainly: Antiviral activity against Oseltamivir-resistant Influenza A virus. It is filed as functional, organism-based.

`Cc1cc(=O)oc2c1ccc1oc(C(=O)c3ccccc3)c(-c3ccccc3)c12` displayed an EC50 of 21 nM.

The term EC50 denotes the concentration needed to bring the measured effect to its halfway point. A lower EC50 goes with higher potency in that assay.

The values are drawn from ChEMBL document CHEMBL5257032, “Therapeutic potential of coumarins as antiviral agents” (Eur J Med Chem, 2016).
